In patent US20190328753A1, “COMPOSITIONS AND METHODS FOR TREATING OCULAR DISEASES” (priority 2015, published 2019):
Where “and” joins values, the source holds several entries; their conditions need not be identical. Equal values may be shown once.

Tested on: patients with moderate to severe MGD
Assay: Clinical trial (Example 8): topical Spironolactone (3 mg/ml) in MGD, retrospective pre-post
Conditions: for Turbidity, Mean / Vascularity, Mean / Zone A, Mean / Anterior Blepharitis, Mean / Obstruction, Mean / Anterior Blepharitis, mean change / Obstruction, mean change / Turbidity, mean change / Vascularity, mean change / Zone A, mean change: scale 0-4; for Global Evaluation, Mean / Global Evaluation, mean change / Subjective Global Assessment, Mean: scale 0-10
[1] = follow-up 1, patients with >1 follow-ups, low Schirmer's, n=10
[2] = follow-up 1, patients with >1 follow-ups, normal Schirmer's, n=28
[3] = follow-up 1, patients with >1 follow-ups, normal Schirmer's, n=28, scale 0-3
[4] = follow-up 1 vs final follow-up, low Schirmer's, n=10
[5] = follow-up 1 vs final follow-up, low Schirmer's, n=10, scale 0-3
[6] = follow-up 1 vs final follow-up, normal Schirmer's, n=28
[7] = follow-up 1 vs final follow-up, normal Schirmer's, n=28, positive = score decrease
[8] = follow-up 1 vs final follow-up, normal Schirmer's, n=28, scale 0-3
[9] = post-treatment follow-up 1, low Schirmer's, n=27
[10] = post-treatment follow-up 1, low Schirmer's, n=27, scale 0-3
[11] = post-treatment follow-up 1, normal Schirmer's, n=75
[12] = post-treatment follow-up 1, normal Schirmer's, n=75, scale 0-3

## CC(=O)SC1CC2=CC(=O)CCC2(C)C2CCC3(C)C(CCC34CCC(=O)O4)C12 (stereo not drawn) [spironolactone, 7α-acetylthio-3-oxo-17α-pregn-4-ene-21,17-carbolactone]
[1]
  Turbidity, Mean: 1.95±0.76 and 1.95
  Vascularity, Mean: 1.1±0.88 and 1.1
  Zone A, Mean: 2.55±0.98 and 2.55
  Global Evaluation, Mean: 4.15±2.07 and 4.15
[2]
  Schirmer's OD, Mean: 17.07±10.10 and 17.07
  Schirmer's OS, Mean: 17.50±10.42 and 17.5
  Vision OD, Mean: 0.07±0.20 log Mar units and 0.07437 log Mar units
  Vision OS, Mean: 0.09±0.15 log Mar units and 0.08826 log Mar units
  Anterior Blepharitis, Mean: 0.29±0.50 and 0.2857
  Obstruction, Mean: 1.12±0.83 and 1.116
  Turbidity, Mean: 1.96±0.62 and 1.964
  Vascularity, Mean: 1.42±0.84 and 1.42
  Zone A, Mean: 2.59±0.82 and 2.589
  Global Evaluation, Mean: 4.32±1.53 and 4.321
[3]
  Keratitis OD Corneal, Mean: 0.0±0.0 and 0
  Keratitis OD Nasal, Mean: 0.64±0.72 and 0.6429
  Keratitis OD Temporal, Mean: 0.54±0.68 and 0.5357
  Keratitis OS Corneal, Mean: 0.14±0.52 and 0.1429
  Keratitis OS Nasal, Mean: 0.82±0.80 and 0.8214
  Keratitis OS Temporal, Mean: 0.71±0.80 and 0.7143
[4]
  Schirmer's OD, mean change: 2.9±4.93 and 2.9
  Schirmer's OS, mean change: 1.56±6.25 and 1.556
  Vision OD, mean change: 0.06±0.10 log units and 0.06011 log units
  Vision OS, mean change: 0.02±0.07 log units and 0.0185 log units
  Anterior Blepharitis, mean change: −0.1±0.57 and −0.1
  Obstruction, mean change: −0.6
  Turbidity, mean change: 0.15±0.82 and 0.15
  Vascularity, mean change: 0.3±0.63 and 0.3
  Zone A, mean change: 0.25±0.75 and 0.25
  Global Evaluation, mean change: 0.25±2.55 and 0.25
follow-up 1 vs final follow-up, low Schirmer's, n=10, positive = score decrease
  mean improvement in obstruction score: 0.6±1.13
[5]
  Keratitis OD Corneal, mean change: 0
  Keratitis OD Nasal, mean change: 0.15
  Keratitis OD Temporal, mean change: 0.05
  Keratitis OS Corneal, mean change: 0.1111
  Keratitis OS Nasal, mean change: −0.2222
  Keratitis OS Temporal, mean change: −0.1667
[6]
  Schirmer's OD, mean change: 1.77±9.01 and 1.778
  Anterior Blepharitis, mean change: 0.04±0.64 and 0.03571
  Obstruction, mean change: −0.0625
  Turbidity, mean change: −0.1607
  Vascularity, mean change: −0.2946
  Zone A, mean change: 0.13±0.69 and 0.125
  Global Evaluation, mean change: −0.7679
[7]
  improvement in self-reported global assessment scores: 0.77±1.36
  mean improvement in obstruction score: 0.06±0.87
  mean improvement in turbidity score: 0.16±1.00
  mean improvement in vascularity score: 0.29±0.79
[8]
  Keratitis OD Corneal, mean change: 0.0±0.0 and 0
  Keratitis OD Temporal, mean change: 0.017±0.57 and 0.01786
  Keratitis OS Corneal, mean change: 0.018±0.21 and 0.01786
Moderate to severe symptomatic MGD, 'as early as'
  time to improved symptoms of ocular irritation: 2 weeks
Patients of the clinical trial
  side effects after topical administration: A small percentage of the patients reported a mild temporary burning sensation in the eye
post-treatment follow-up 1, low Schirmer's (5 or less), n=27
  Subjective Global Assessment, Mean: 3.78±1.68 and 3.778
[9]
  Schirmer's OD, Mean: 7.52±7.42 mm and 7.519 mm
  Schirmer's OS, Mean: 6.92±5.34 mm and 6.923 mm
  Vision OD, Mean: 0.05±0.12 log Mar units and 0.04681 log Mar units
  Vision OS, Mean: 0.13±0.30 log Mar units and 0.1307 log Mar units
  Anterior Blepharitis, Mean: 0.41±0.71 and 0.4074
  Obstruction, Mean: 1.13±1.05 and 1.13
  Turbidity, Mean: 1.89±0.91 and 1.889
  Vascularity, Mean: 0.93±0.829 and 0.9259
  Zone A, Mean: 2.46±1.13 and 2.463
[10]
  Keratitis OD Corneal, Mean: 0.07±0.38 and 0.07407
  Keratitis OD Nasal, Mean: 0.93±0.84 and 0.9259
  Keratitis OD Temporal, Mean: 0.74±0.91 and 0.7407
  Keratitis OS Corneal, Mean: 0.15±0.37 and 0.1538
  Keratitis OS Nasal, Mean: 1.19±0.87 and 1.192
  Keratitis OS Temporal, Mean: 0.96±0.82 and 0.9615
post-treatment follow-up 1, normal Schirmer's (>5), n=75
  Subjective Global Assessment, Mean: 4.03±1.57 and 4.033
[11]
  Schirmer's OD, Mean: 16.47±9.75 mm and 16.47 mm
  Schirmer's OS, Mean: 16.95±9.61 mm and 16.95 mm
  Vision OD, Mean: 0.08±0.18 log Mar units and 0.07686 log Mar units
  Vision OS, Mean: 0.11±0.22 log Mar units and 0.1115 log Mar units
  Anterior Blepharitis, Mean: 0.39±0.67 and 0.3867
  Obstruction, Mean: 0.98±0.69 and 0.9833
  Turbidity, Mean: 1.75±0.75 and 1.753
  Vascularity, Mean: 1.11±0.829 and 1.11
  Zone A, Mean: 2.51±0.88 and 2.513
[12]
  Keratitis OD Corneal, Mean: 0.007±0.06 and 0.006757
  Keratitis OD Nasal, Mean: 0.64±0.68 and 0.6419
  Keratitis OD Temporal, Mean: 0.45±0.64 and 0.4527
  Keratitis OS Corneal, Mean: 0.07±0.34 and 0.06757
  Keratitis OS Nasal, Mean: 0.72±0.73 and 0.723
  Keratitis OS Temporal, Mean: 0.57±0.69 and 0.5743
